Literature values as cited in patent publication EP0707853B1, “Muscle relaxant pharmaceutical compositions” (priority 1994, dated 1996).

Conditions: for pI: isoionic point; for pI / pKa: Handbook of Chemistry and Physics, ed. 69, page C 107; for isoionic point (pI): value given in the example text as the pH the solution is brought to; for pKa: pKa values for basic groups

Structure (SMILES)	pI	isoionic point (pI)	pKa
NCC(=O)O [glycine]	6,06	6.1	
O=C(O)[C@@H]1C[C@@H](O)CN1 [hydroxyproline]	5,82		9,73
O=C(O)[C@@H]1CCCN1 [proline]	6,3		9,87
N[C@@H](CO)C(=O)O [serine]	5,68	5.67	9,15
CC(C)[C@H](N)C(=O)O [valine]	6,0		9,72
C[C@H](N)C(=O)O [alanine]	6,1		9,87
CSCC[C@H](N)C(=O)O [methionine]	5,91		10,6
